The test system of one test is Mouse Writhing. Briefly: mouse writhing assay (analgesic activity). Conditions: po, p.o. by gavage in corn oil-acacia emulsion (5%), three hours before i.p. acetic acid (0.60 percent), 10 minute observation starting five minutes after acetic acid, read-out: Mouse Writhing ED50 (dose required to inhibit induced writhing by fifty percent). It is filed as in vivo, Cox standard strain albino male mice. An excerpt:
The analgesic activity of a number of compounds provided by this invention has been determined in the standard mouse writhing assay. Writhing, which is characterized by contraction of the abdominal musculature, extension of the hindlegs, and rotation of the trunk, was induced in Cox standard strain albino male mice. The mice, weighing 18-24 grams, were fasted overnight and given the test compound by gavage in a corn oil-acacia emulsion (5%) three hours before writhing was induced by the intraperitoneal administration of acetic acid (0.60 percent). Each treatment group consisted of five mice. The total number of writhes for the treatment group was determined during a 10 minute observation starting five minutes after acetic acid administration. […] Table I which follows presents typical test results obtained with certain of the compounds of this invention. The results in the mouse writhing assay are presented as the effective oral (p.o.) dose in mg./kg. of the tested compound required to inhibit induced writhing in the test animals by fifty percent (ED50).

Test [1] concerns adjuvant-induced arthritis. Briefly: Established adjuvant-induced arthritis test in rats (uninjected hind paw swelling). It is filed as in vivo, male Lewis-Wistar rats. The settings on record: AUC of mean uninjected paw volumes.

In the case of `COc1ccc(-c2cnc(-c3ccc(Cl)cc3)nc2-c2ccc(OC)cc2)cc1` [Example 1, 2-(4-Chlorophenyl)-4,5-bis(4-methoxyphenyl)pyrimidine], in the test on Mouse Writhing, the ED50 came out at 0.99 mg/kg. In test [1] (25 mg./kg. p.o. × 15, daily days 15-29, corn oil-acacia emulsion), the “% Inhibition of Uninjected Paw Volume Inflammation, Days 14 through 30” value was found to be 74%.
With `COc1ccc(-c2cnc(-c3ccc(F)cc3)nc2-c2ccc(OC)cc2)cc1` [Example 2, 2-(4-Fluorophenyl)-4,5-bis(4-methoxyphenyl)pyrimidine], the ED50 in the test on Mouse Writhing worked out at 1.48 mg/kg. In addition, the “% Inhibition of Uninjected Paw Volume Inflammation, Days 14 through 30” value in test [1] (10 mg./kg. p.o. × 15, daily days 15-29, corn oil-acacia emulsion) is listed as 70%.

These data come from patent publication US4500533A, “2,4,5-Triaryl pyrimidines and a method of treating pain, fever, thrombosis, inflammation and arthritis” (Eli Lilly and Company, priority 1983, dated 1985).
